Experimental data: PubChem BioAssay (NCI)
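Assay format: 96-well plates, 48-hour exposure. TGI: total growth inhibition.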

What was measured:
Assay in all cases: NCI tumour cell line growth inhibition, 48 h
[1] = test system: DLD-1 colon
[2] = test system: DMS 114 small cell lung
[3] = test system: DMS 273 small cell lung
[4] = test system: HOP-18 NSCLC
[5] = test system: KM20L2 colon
[6] = test system: LXFL 529 NSCLC
[7] = test system: M19-MEL melanoma
[8] = test system: SNB-78 CNS
[9] = test system: XF 498 CNS
[10] = test system: RXF-631 renal

| SMILES | TGI [1] | TGI [2] | TGI [3] | TGI [4] | TGI [5] | TGI [6] | TGI [7] | TGI [8] | TGI [9] | TGI [10] |
| --- | --- | --- | --- | --- | --- | --- | --- | --- | --- | --- |
| COc1cccc2c1[C@H]1OC(=O)NC1CCCCC2 (stereo partly specified) | > 100 µM | > 100 µM | > 100 µM | > 100 µM | > 100 µM | > 100 µM | > 100 µM | > 100 µM |  |  |
| O[C@]12c3ccccc3C1CCCCC2N1CCOCC1 (stereo partly specified) |  | > 100 µM | > 100 µM | > 100 µM | > 100 µM | > 100 µM | > 100 µM | > 100 µM | > 100 µM |  |
| O=C(NN1C(=O)C(Cl)C1c1c(O)ccc2ccccc12)c1ccccc1O (stereo unspecified) | > 100 µM | > 100 µM | > 100 µM | > 100 µM |  | > 100 µM | > 100 µM | > 100 µM | > 100 µM |  |
| CSc1nc(C)cc(=O)n1C1OC(COC(C)=O)C(OC(C)=O)C(OC(C)=O)C1OC(C)=O (stereo unspecified) | > 100 µM | > 100 µM | > 100 µM |  | > 100 µM | > 100 µM | > 100 µM |  | > 100 µM |  |
| Nc1ncnc2c1ncn2CCOC(c1ccccc1)P(=O)(O)O (stereo unspecified) | > 100 µM |  | > 100 µM |  | > 100 µM | > 100 µM | > 100 µM | > 100 µM |  |  |
| CCN(CC)C(=S)S | > 100 µM |  |  | > 100 µM | > 100 µM | > 100 µM | > 37.5 µM | > 100 µM |  | > 67.4 µM |
| Cn1c(=O)c(C(=O)NC23CC4CC(CC(C4)C2)C3)c(O)c2ccccc21 | > 100 µM | > 100 µM | 64.3 µM |  | > 100 µM | > 100 µM | > 100 µM | > 100 µM |  |  |
